How the values were obtained:
mice = assay: House dust mite (HDM)-induced asthma-like allergic lung inflammation; type: in vivo, mouse
Protocol: Glucocorticoids have been (Pearlman et al., 1997. Ann Allergy Asthma Immunol. 78(4):356-62), and are still, widely used in asthma therapy. In order to investigate the possible CpdX anti-inflammatory activity in vivo, mice were sensitized and challenged with either ovalbumin (OVA) or house dust mite (HDM) to induce an asthma-like allergic lung inflammation.
Mice were intranasally sensitized with 1 μg HDM from DO to D4, and further intranasally sensitized with 10 μg HDM on D14 and D21. Mice were then subdivided into eight groups, and on D29, D30 and D31, each mouse was again intranasally challenged with 1 μg HDM. The first seven groups received respectively 0.5 mg/kg of body weight of Dex, CpdX, CpdX(eA), CpdX(eB), CpdX-D3, CpdX-D3(eA) or CpdX-D3(eB), while the eighth group served as a control.
On D32, the airway responsiveness was invasively determined using a computer-controlled small animal ventilator (FlexVent® system, SCIREQ Technologies). Mice were anesthetized with xylazine (15 mg/kg, i.p.), followed 15 minutes later by an i.p. injection of pentobarbital sodium (54 mg/kg). An 18-gauge metal needle was then inserted into the trachea, each mouse was connected to the FlexVent® ventilator and quasi-sinusoidally ventilated with a tidal volume of 10 mL/kg at a frequency of 150 breaths/minute and a positive end-expiratory pressure of 2 cm H2O, in order to achieve a mean lung volume close to spontaneous breathing. After baseline measurement, mice were challenged for 10 seconds with a saline aerosol and, at 4.5-minute intervals, with 50 mg/mL methacholine. Airway resistance and elastance were expressed as cmH20·s/mL and cmH2O/mL respectively.
The lung allergic inflammation was assessed by examination of the bronchoalveolar lavage (BAL) fluid from each of these HDM-challenged mice. The total BAL cells, eosinophils, neutrophils, macrophages and lymphocytes were counted. RNA transcripts were extracted from lung samples. RNA transcripts of IL-1β, IL-6, IL-4, IL-5, IL-13, Eotaxin, CCL4, IL-10 and TNFα were analyzed by q-RT-PCR. Lung tissues were harvested and histological (with H&E staining) and immunohistochemical analyses were also carried out (with eosinophil-specific and neutrophil-specific antibodies).

Balb/C mouse ears = assay: Aldara-induced psoriasis-like skin inflammation; type: in vivo
Protocol: Balb/C mouse ears were topically treated with Aldara® to induce a psoriasis-like skin inflammation (Vinter et al., 2015. Br J Dermatol. 172(2):345-53). Mice were treated for 9 days with Aldara®, including a co-topical treatment for the last 5 days with either ethanol (Vehicle), Dex, CpdX or CpdX-D3.
At D10, RNA transcripts were extracted from mouse ears and IL-17a, IL-17c, IL-17f and IL-22 transcripts were analyzed by q-RT-PCR. Ear skin samples were also harvested for histological analyses (with H&E staining).

B6 male mice [1] = assay: Blood glucose and intraperitoneal glucose tolerance test after three-month treatment; type: in vivo, mouse
Protocol: B6 male mice (8-week-old) were daily subjected for three months to a subcutaneous injection of either vehicle (NaCl 0.9%), Dex, CpdX, CpdX(eA), CpdX(eB), CpdX-D3, CpdX-D3(eA) or CpdX-D3(eB) (1 mg/kg body weight, diluted in vehicle). Mice were over-night-fasted. Mouse blood glucose concentration was measured before (T0) and during two hours (T120) after glucose i.p. injection ([…] body weight).

B6 male mice [2] = assay: Corticosterone synthesis and adrenal gland after three-month treatment; type: in vivo, mouse
Protocol: B6 male mice (8-week-old) were daily subjected for three months to either a subcutaneous injection of vehicle (NaCl 0.9%), Dex, CpdX, CpdX(eA), CpdX(eB), CpdX-D3, CpdX-D3(eA) or CpdX-D3(eB) (1 mg/kg body weight, diluted in vehicle).
Following this long-term treatment, blood was collected at 10 a.m. and 6 p.m. by retro-orbital puncture in lithium-heparin coated vials, and the plasmatic level of corticosterone was determined. Adrenal glands were harvested and weighted. RNA transcripts were extracted and transcripts of the Cyp11a, Cyp11b1, Cyp11b2 and HSD3β genes were analyzed by q-RT-PCR. Histological analyses of the adrenal glands were also carried out.

Balb/C mice [3] = assay: Skin atrophy after 8-day topical treatment of dorsal skin; type: in vivo, mouse
Description: To investigate whether, similarly to Dex, a topical administration of CpdX could result in a skin atrophy, Balb/C mice were shaved on the dorsal skin. Ethanol (vehicle), Dex, CpdX or either one of its two enantiomers CpdX(eA) or CpdX(eB), as well as the deuterated form CpdX-D3 or either one of its two enantiomers CpdX-D3(eA) or CpdX-D3(eB), were topically applied onto the dorsal skin for 8 days.
Upon completion of the treatments, RNA transcripts were extracted from dorsal skin samples and the transcripts of Kindlin-1 and REDD1 genes were analyzed by q-RT-PCR. Histological and morphometric analyses of the dorsal skin were also performed.

Balb/C mice [4] = assay: Ovalbumin (OVA)-induced allergic conjunctivitis; type: in vivo, mouse; conditions: 0.1% instillation D22 to D24, 20 minutes after the last OVA challenge
Protocol: To investigate the anti-inflammatory effect of CpdX or CpdX-D3 on an allergic conjunctivitis, Balb/C mice were intraperitoneally sensitized with 50 μg OVA with alum on both days D1 and D8, and then challenged from D15 to D21 with 250 μg OVA in 5 μL of sterilized vehicle (0.9% NaCl), which were directly instilled onto the conjunctival sac. From D22 to D24, mice were divided into several groups, and received instillations with either OVA alone, OVA together with 0.1% of either Dex, CpdX, CpdX(eA), CpdX(eB), CpdX-D3, CpdX-D3(eA) or CpdX-D3(eB).
The clinical appearance of mouse eyes was evaluated 20 minutes after the last instillation on D24. Clinical signs (conjunctival hyperemia, lid edema and tearing) were scored to evaluate the occurrence and severity of conjunctivitis as described by Gimenes et al. (2015. Experimental Eye Research 134:24-32). Parameters were graded on a scale ranging from 0 to 3, (0=absence, 1=mild, 2=moderate, and 3=severe symptoms), each animal receiving a total clinical score ranging from 0 to 9. The data were expressed as mean±SEM with at least four mice per treatment.

COc1ccc(F)cc1C(C)(C)CC(O)(CNc1ccc2c(c1)COC2=O)C(F)(F)F (racemic) [CpdX, 5-[4-(5-fluoro-2-methoxyphenyl)-2-hydroxy-4-methyl-2-(trifluoromethyl)pentylamino]-isobenzofuran-1(3H)-one]
number of neutrophils and macrophages in BAL (mice; 0.5 mg/kg on D29-D31, BAL on D32): No significant change | total number of BAL cells, eosinophils and lymphocytes (mice; 0.5 mg/kg on D29-D31, BAL on D32, vs control group): significantly decreased | eosinophils in lung, immunohistochemistry (mice; eosinophil-specific antibodies, data not shown): decreased | peribronchiolar and perivascular inflammatory cell infiltration (mice; histology of lung paraffin sections): strongly decreased | neutrophils in lung, immunohistochemistry (mice; neutrophil-specific antibody, data not shown): no significant change | expressions of IL-1β, IL-6, IL-4, IL-5, IL-13, Eotaxin and CCL4 (pro-inflammatory genes) in lung samples (mice; q-RT-PCR, D32): significantly and similarly decreased | expressions of IL-10 and TNFα in lung samples (mice; q-RT-PCR, data not shown): not affected | HDM-induced airway hyperresponsiveness (AHR), airway resistance and elastance (mice; response to methacholine 50 mg/mL, D32): similarly reduced | induced expression of the Th17 cytokines IL-17a, IL-17c, IL-17f and IL-22 (Balb/C mouse ears; ear extracts, q-RT-PCR, D10): similarly reduced | Aldara-induced psoriasis-like skin inflammation, H&E histology (Balb/C mouse ears; mouse, in vivo): could reduce | Aldara-induced psoriasis-like skin inflammation (Balb/C mouse ears; topical co-treatment for the last 5 days, 1 nmole/cm^2): significantly decreased | control of the blood glucose level (B6 male mice [1]; three months, conclusion): does not significantly affect | blood glucose level in intraperitoneal glucose tolerance test (IPGTT) (B6 male mice [1]; two-hour period after glucose i.p. injection (2 mg/kg body weight)): no significant difference | plasmatic corticosterone level (B6 male mice [2]; at 10 a.m., compared to control mice (Vehicle)): much higher | cortex layers, most notably the fasciculata zone, of the adrenal glands (B6 male mice [2]; three months, histology): markedly increased | glomerulosa zone of the adrenal cortex (B6 male mice [2]; three months, histology, 'but not' = not decreased): but not | transcripts of Cyp11a, Cyp11b1 and HSD3β genes in adrenal glands (B6 male mice [2]; three months, q-RT-PCR): increased | epidermal thickness (Balb/C mice [3]; eight-day topical treatment, morphometric analysis): not significantly decreased | skin atrophy, histological analysis (Balb/C mice [3]; eight-day topical treatment, 'in marked contrast' = no severe atrophy as with Dex): in marked contrast | transcription of the REDD1 gene in dorsal skin (Balb/C mice [3]; topical 8 days, 1 nmole/cm^2, 'but not' = not increased): but not | clinical signs of allergic conjunctivitis (conjunctival hyperemia, lid edema and tearing) (Balb/C mice [4]): considerably reduced

From patent publication US20190151283A1, “NON-STEROIDAL SELECTIVE GLUCOCORTICOID RECEPTOR AGONISTIC MODULATORS (SEGRAMs) AND USES THEREOF” (ASSOCIATION POUR LA RECHERCHE À L'IGBMC (ARI), priority 2017, published 2019)
